For test [1], the target named is T1, β2-AR (Homo sapiens, UniProt P07550). In kind it is binding.
The target in test [2] is T1, β2-AR. To be noted: marker [3H]-(R,R′)-2.
Another test has as its system Gs proteins. Particulars: ref [2]; cited from earlier work.
Test [3] deals with isolated rat ventricular myocytes. Particulars: cited from earlier work.
The subject of test [4] is 1321N1 astrocytoma cells. Particulars: read-out: IC50, proliferation of 1321N1 astrocytoma cells; ref [5]; cited from earlier work.
In test [5] the target is β2-AR relative to the β1-AR. Particulars: β2-AR subtype selectivity; ref [3]; cited from earlier work.
Test [6] has as its system 1321N1 astrocytoma cells. Put plainly: inhibition of proliferation of 1321N1 astrocytoma cells. To be noted: Homo sapiens, 1321-N1, read-out: IC50, proliferation of 1321N1 astrocytoma cells. In kind it is cell-based.
For test [7], the system named is isolated rat ventricular myocytes. The experiment in a line: cardiomyocyte contractility model. In kind it is cell-based. Particulars: initial studies, unpublished data.

Each structure is given as a SMILES string. pIC50: −log10 of the molar value. Where two headings read alike, the source gives them in different places.

T1 sequence (P07550 whole entry): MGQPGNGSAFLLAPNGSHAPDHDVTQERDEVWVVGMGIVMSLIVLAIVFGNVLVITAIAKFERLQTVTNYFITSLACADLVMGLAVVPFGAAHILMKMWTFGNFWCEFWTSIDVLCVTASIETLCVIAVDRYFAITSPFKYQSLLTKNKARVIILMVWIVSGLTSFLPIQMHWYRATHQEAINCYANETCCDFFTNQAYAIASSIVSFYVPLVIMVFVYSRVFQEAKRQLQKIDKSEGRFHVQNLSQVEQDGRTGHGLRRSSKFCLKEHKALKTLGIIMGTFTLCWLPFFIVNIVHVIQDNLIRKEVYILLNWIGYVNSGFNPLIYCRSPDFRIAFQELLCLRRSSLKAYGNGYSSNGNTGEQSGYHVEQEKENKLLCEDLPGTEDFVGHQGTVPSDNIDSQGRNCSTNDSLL

Regarding `COc1ccc(CCNC[C@H](O)c2cc(O)cc(O)c2)cc1` [(R)-67, (R)-(−)-5-(1-Hydroxy-2-((4-methoxyphenethyl)amino)ethyl)benzene-1,3-diol], the “HS (Hill coefficient), displacement of [3H]-CGP-12177” value (“HS … [3H]-CGP-12177” below) at β2-AR [1] (marker [3H]-CGP-12177) worked out at 1.80 ± 0.70. Further, at β2-AR [2], the “HS (Hill coefficient), displacement of [3H]-(R,R′)-2” value (“HS … [3H]-(R,R′)-2” for short) amounted to 1.59 ± 0.50 and the “Ki lower than (S)-67” value is 10 fold.
For `C[C@H](Cc1ccc(O)cc1)NC[C@H](O)c1cc(O)cc(O)c1` [(R,R′)-1, (R,R′)-Fenoterol], the “G protein coupling” value with Gs proteins is recorded as “selectively couples to Gs proteins”. In test [3] (isolated rat ventricular myocytes, ref [1],[2]), the “increase in contractile response” value is on record as 300%. Further, at β2-AR [2], the “HS … [3H]-(R,R′)-2” value was 0.76 ± 0.1.
With `COc1ccc(C[C@@H](C)NC[C@H](O)c2cc(O)cc(O)c2)cc1` [(R,R′)-2, (R,R′)-4′-methoxyfenoterol], on β2-AR [1], the “HS … [3H]-CGP-12177” value stood at 0.98 ± 0.05. Further, the “G protein coupling” value with Gs proteins was “selectively signaled through Gs proteins”. Further, on β2-AR [2], the “HS … [3H]-(R,R′)-2” value turned out to be 0.80 ± 0.9.
Take `CC[C@H](Cc1ccc(O)cc1)NC[C@H](O)c1cc(O)cc(O)c1` [(R,R′)-52]: the “HS … [3H]-CGP-12177” value on β2-AR [1] (marker [3H]-CGP-12177) amounted to 1.01 ± 0.01. The “stimulation of rat cardiomyocyte contractility” value in test [3] (ref [3]) is “essentially inactive”. Besides, the “lower activity in the cardiomyocyte contractility model” value in test [3] (relative to other tested compounds, ref [3]) was greater than 100 fold. For the same compound, the “HS … [3H]-(R,R′)-2” value at β2-AR [2] is given as 0.93 ± 0.1. In the test with 1321N1 astrocytoma cells [4], the pIC50 is 8.85. Besides, in test [5], the Kiβ1-AR/Kiβ2-AR is 334.
Take `COc1ccc(C[C@@H](C)NC[C@H](O)c2cc(O)cc(O)c2)c2ccccc12` [(R,R′)-54]: the “HS … [3H]-CGP-12177” value at β2-AR [1] (marker [3H]-CGP-12177) is given as 1.07 ± 0.09. The “HS … [3H]-(R,R′)-2” value on β2-AR [2] is 0.86 ± 0.1.
Regarding `CC[C@H](Cc1ccc(OC)cc1)NC[C@H](O)c1cc(O)cc(O)c1` [(R,R′)-64, (R,R′)-(−)-5-(1-Hydroxy-2-((1-(4-methoxyphenyl)butan-2-yl)amino)ethyl)benzene-1,3-diol], at β2-AR [1] (marker [3H]-CGP-12177), the “HS … [3H]-CGP-12177” value was 1.00 ± 0.11 and the “Ki lower than (R,R′)-52” value came out at 3 fold. Besides, the “Ki(R,S′)/Ki(R,R′)” value at β2-AR [1] (marker [3H]-CGP-12177, difference between (R,S′)- and (R,R′)-isomers) worked out at 50 fold. Moreover, in the test with 1321N1 astrocytoma cells [6], the pIC50 was 8.82. The “activity in the cardiomyocyte contractility model” value in test [7] is “no activity”. On β2-AR [2], the “HS … [3H]-(R,R′)-2” value turned out to be 0.82 ± 0.04 and the “decrease in binding affinity compared with (R,R′)-2” value came out at 10 fold.
In the case of `COc1ccc(C[C@H](NC[C@H](O)c2cc(O)cc(O)c2)C(C)C)cc1` [(R,R′)-65, (R,R′)-5-(1-Hydroxy-2-((1-(4-methoxyphenyl)-3-methylbutan-2-yl)amino)ethyl)-benzene-1,3-diol], the “HS … [3H]-(R,R′)-2” value on β2-AR [2] worked out at 1.41 ± 0.47.
As for `CCC[C@H](Cc1ccc(OC)cc1)NC[C@H](O)c1cc(O)cc(O)c1` [(R,R′)-66, (R,R′)-5-(1-Hydroxy-2-((1-(4-methoxyphenyl)pentan-2-yl)amino)ethyl)benzene-1,3-diol], at β2-AR [1] (marker [3H]-CGP-12177), the “HS … [3H]-CGP-12177” value amounted to 0.90 ± 0.03. Besides, at β2-AR [2], the “HS … [3H]-(R,R′)-2” value is recorded as 1.38 ± 0.32.
The corresponding values for `C[C@@H](Cc1ccc(O)cc1)NC[C@H](O)c1cc(O)cc(O)c1` [(R,S′)-1] are 0.81 ± 0.1 and 0.97 ± 0.1.
For `COc1ccc(C[C@H](C)NC[C@H](O)c2cc(O)cc(O)c2)cc1` [(R,S′)-2], the “HS … [3H]-CGP-12177” value at β2-AR [1] was determined as 1.01 ± 0.14. Moreover, the “HS … [3H]-(R,R′)-2” value on β2-AR [2] is reported as 1.00 ± 0.05.
Turning to `CC[C@@H](Cc1ccc(O)cc1)NC[C@H](O)c1cc(O)cc(O)c1` [(R,S′)-52], the “HS … [3H]-CGP-12177” value at β2-AR [1] (marker [3H]-CGP-12177) came to 2.07 ± 0.4. For the same compound, the “HS … [3H]-(R,R′)-2” value on β2-AR [2] was determined as 0.87 ± 0.2.
Taken in the same sequence, the figures for `COc1ccc(C[C@H](C)NC[C@H](O)c2cc(O)cc(O)c2)c2ccccc12` [(R,S′)-54] were 1.06 ± 0.02 and 0.90 ± 0.2.
Turning to `CC[C@@H](Cc1ccc(OC)cc1)NC[C@H](O)c1cc(O)cc(O)c1` [(R,S′)-64, (R,S′)-(+)-5-(1-Hydroxy-2-((1-(4-methoxyphenyl)butan-2-yl)amino)ethyl)benzene-1,3-diol], at β2-AR [2], the “HS … [3H]-(R,R′)-2” value was determined as 0.86 ± 0.05.
Turning to `COc1ccc(C[C@@H](NC[C@H](O)c2cc(O)cc(O)c2)C(C)C)cc1` [(R,S′)-65, (R,S′)-(−)-5-(1-hydroxy-2-((1-(4-methoxyphenyl)-3-methylbutan-2-yl)amino)-ethyl)benzene-1,3-diol], the “HS … [3H]-(R,R′)-2” value on β2-AR [2] is 1.45 ± 0.56.
Regarding `CCC[C@@H](Cc1ccc(OC)cc1)NC[C@H](O)c1cc(O)cc(O)c1` [(R,S′)-66, (R,S′)-5-(1-Hydroxy-2-((1-(4-methoxyphenyl)pentan-2-yl)amino)ethyl)benzene-1,3-diol], the “HS … [3H]-(R,R′)-2” value at β2-AR [2] was found to be 0.89 ± 0.14.
Still for that read-out and setting: the result for `COc1ccc(CCNC[C@@H](O)c2cc(O)cc(O)c2)cc1` [(S)-67, (S)-5-(1-Hydroxy-2-((4-methoxyphenethyl)amino)ethyl)benzene-1,3-diol] reads 0.89 ± 0.03.
On the same count and under the same terms, the result for `COc1ccc(C[C@@H](C)NC[C@@H](O)c2cc(O)cc(O)c2)cc1` [(S,R′)-2] reads 0.86 ± 0.13.
As for `COc1ccc(C[C@H](C)NC[C@@H](O)c2cc(O)cc(O)c2)cc1` [(S,S′)-2], the “HS … [3H]-CGP-12177” value on β2-AR [1] is given as 2.30 ± 0.32. Moreover, the “HS … [3H]-(R,R′)-2” value on β2-AR [2] turned out to be 1.68 ± 0.54.

Values taken from PMC3908673 (Bioorganic & medicinal chemistry, 2013).
